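Assay format: 96-well plates, 48-hour exposure. TGI is the concentration that stops growth completely.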

This is an account of results in PubChem BioAssay (NCI).

The first experiment has as its system U251 CNS. As to the kind of experiment: NCI anticancer screen, dose series, 48 h.
`N#Cc1[nH]c(=S)[nH]c1N` came in with a TGI of over 100 µM.

`O=C(N[C@@H](c1ccccc1)[C@@H](O)C(=O)OCc1ccc([N+](=O)[O-])cc1)c1ccccc1` yielded a TGI of over 100 µM.

With `Cc1ccccc1N/C(=C(/C(Cl)=C(Cl)Cl)[N+](=O)[O-])n1nnc2ccccc21`, the TGI turned out to be 29.9 µM.

For `COc1ccc(-c2csc(Cc3nc4ccccc4c(=O)n3-c3ccc(Cl)cc3)n2)cc1`, the TGI is over 100 µM.

Compound `COc1ccc2[nH]c3c(c2c1)CC(=S)N1CCCC(CC3=O)C1` (centres undefined) registered a TGI of over 100 µM.

As to `CN(C)CCNC(=O)c1ccc2nc3c(nc2c1)C(=O)c1ccccc1-3`, the TGI came to 71.5 µM.

`CC1(C)CC(=O)C(C=NC(=O)c2ccncc2)=C(O)C1`: the TGI was over 100 µM.

As to `CCOC(=O)CO/N=C1/C(c2c(O)[nH]c3ccccc23)=Nc2ccccc21`, the TGI came to 66.1 µM.

A further experiment deals with MDA-MB-435. Briefly: NCI anticancer screen, dose series, 48 h.
Take `CCCCCCCCCCCCC/C=C/[C@@H](O)[C@H](COC1OC(CO)C(OC2OC(CO)C(O)C(OC3(C(=O)O)CC(O)C(NC(C)=O)C(C(O)C(O)CO)O3)C2O)C(O)C1O)N=[N+]=[N-]` (some centres undefined): the TGI was over 100 µM.

`COc1ccc2c(c1)C(=O)OCCC2` gave a TGI of over 100 µM.

The compound `COc1ccc(-n2cnn3c(=O)c4cn[nH]c4nc23)cc1` registered a TGI of over 10 µM.

`CCOC(=O)C1(C/C=C/CBr)CCc2ccccc2C1=O` (centres undefined): the TGI is 31 µM.

On to `COc1cc(C(C)=O)cc(C(=O)N(C(C)C)C(C)C)c1[Si](C)(C)C`, for which the TGI was over 100 µM.

`CCCCSC1=N/C(=C\c2ccco2)C(Cl)=N1` showed a TGI of over 100 µM.

For the compound `CN1CCc2c(sc3ncn(C)c(=N)c23)C1`, the TGI was over 100 µM.

In the case of `c1ccc(NN=C(c2ccccn2)c2ccccn2)nc1`, the TGI is over 100 µM.

Compound `N#Cc1[nH]c(=S)[nH]c1N` had a TGI of over 100 µM.

`O=C(N[C@@H](c1ccccc1)[C@@H](O)C(=O)OCc1ccc([N+](=O)[O-])cc1)c1ccccc1` showed a TGI of over 100 µM.

`Cc1ccccc1N/C(=C(/C(Cl)=C(Cl)Cl)[N+](=O)[O-])n1nnc2ccccc21` had a TGI of 30.1 µM.

Turning to `COc1ccc(-c2csc(Cc3nc4ccccc4c(=O)n3-c3ccc(Cl)cc3)n2)cc1`, the TGI is over 100 µM.

`COc1ccc2[nH]c3c(c2c1)CC(=S)N1CCCC(CC3=O)C1` (centres undefined) gave a TGI of over 100 µM.

For `CN(C)CCNC(=O)c1ccc2nc3c(nc2c1)C(=O)c1ccccc1-3`, the TGI turned out to be 48.2 µM.

In turn, `CC1(C)CC(=O)C(C=NC(=O)c2ccncc2)=C(O)C1` displayed a TGI of over 100 µM.

Take `CCOC(=O)CO/N=C1/C(c2c(O)[nH]c3ccccc23)=Nc2ccccc21`: the TGI was over 100 µM.

The subject of the next experiment is RPMI-8226 leukemia. Briefly: NCI anticancer screen, dose series, 48 h.
`CCCCCCCCCCCCC/C=C/[C@@H](O)[C@H](COC1OC(CO)C(OC2OC(CO)C(O)C(OC3(C(=O)O)CC(O)C(NC(C)=O)C(C(O)C(O)CO)O3)C2O)C(O)C1O)N=[N+]=[N-]` (some centres undefined): the TGI was over 100 µM.

On to `COc1ccc2c(c1)C(=O)OCCC2`, for which the TGI was over 100 µM.

Compound `CCCCSC1=N/C(=C\c2ccco2)C(Cl)=N1` showed a TGI of over 100 µM.

`CN1CCc2c(sc3ncn(C)c(=N)c23)C1` returned a TGI of over 100 µM.

As to `Cc1ccccc1N/C(=C(/C(Cl)=C(Cl)Cl)[N+](=O)[O-])n1nnc2ccccc21`, the TGI was over 100 µM.

Compound `COc1ccc(-c2csc(Cc3nc4ccccc4c(=O)n3-c3ccc(Cl)cc3)n2)cc1` yielded a TGI of 45.8 µM.

Compound `COc1ccc2[nH]c3c(c2c1)CC(=S)N1CCCC(CC3=O)C1` (centres undefined) displayed a TGI of over 100 µM.

In the case of `CN(C)CCNC(=O)c1ccc2nc3c(nc2c1)C(=O)c1ccccc1-3`, the TGI was determined as 63.3 µM.

`CCOC(=O)CO/N=C1/C(c2c(O)[nH]c3ccccc23)=Nc2ccccc21` registered a TGI of over 100 µM.

A further experiment has as its system A498 renal. Briefly: NCI anticancer screen, dose series, 48 h.
For `CCCCCCCCCCCCC/C=C/[C@@H](O)[C@H](COC1OC(CO)C(OC2OC(CO)C(O)C(OC3(C(=O)O)CC(O)C(NC(C)=O)C(C(O)C(O)CO)O3)C2O)C(O)C1O)N=[N+]=[N-]` (some centres undefined), the TGI is over 100 µM.

In turn, `COc1ccc2c(c1)C(=O)OCCC2` returned a TGI of over 100 µM.

As to `CCOC(=O)C1(C/C=C/CBr)CCc2ccccc2C1=O` (centres undefined), the TGI amounted to 38 µM.

In the case of `COc1cc(C(C)=O)cc(C(=O)N(C(C)C)C(C)C)c1[Si](C)(C)C`, the TGI is over 100 µM.

On to `CCCCSC1=N/C(=C\c2ccco2)C(Cl)=N1`, for which the TGI is over 100 µM.

With `CN1CCc2c(sc3ncn(C)c(=N)c23)C1`, the TGI was over 100 µM.

Consider `c1ccc(NN=C(c2ccccn2)c2ccccn2)nc1`, for which the TGI turned out to be 7.11 µM.

`N#Cc1[nH]c(=S)[nH]c1N` returned a TGI of over 100 µM.

Turning to `O=C(N[C@@H](c1ccccc1)[C@@H](O)C(=O)OCc1ccc([N+](=O)[O-])cc1)c1ccccc1`, the TGI was over 100 µM.

As for `Cc1ccccc1N/C(=C(/C(Cl)=C(Cl)Cl)[N+](=O)[O-])n1nnc2ccccc21`, the TGI amounted to 40.4 µM.

As for `COc1ccc(-c2csc(Cc3nc4ccccc4c(=O)n3-c3ccc(Cl)cc3)n2)cc1`, the TGI is over 100 µM.

Consider `COc1ccc2[nH]c3c(c2c1)CC(=S)N1CCCC(CC3=O)C1` (centres undefined), for which the TGI is over 100 µM.

With `CN(C)CCNC(=O)c1ccc2nc3c(nc2c1)C(=O)c1ccccc1-3`, the TGI is over 100 µM.

In the case of `CCOC(=O)CO/N=C1/C(c2c(O)[nH]c3ccccc23)=Nc2ccccc21`, the TGI stood at 38.2 µM.

In a further experiment the test system is MDA-MB-231 breast. Briefly: NCI anticancer screen, dose series, 48 h.
`CCCCCCCCCCCCC/C=C/[C@@H](O)[C@H](COC1OC(CO)C(OC2OC(CO)C(O)C(OC3(C(=O)O)CC(O)C(NC(C)=O)C(C(O)C(O)CO)O3)C2O)C(O)C1O)N=[N+]=[N-]` (some centres undefined) yielded a TGI of over 100 µM.

Compound `COc1ccc2c(c1)C(=O)OCCC2` came in with a TGI of over 100 µM.

On to `CCOC(=O)C1(C/C=C/CBr)CCc2ccccc2C1=O` (centres undefined), for which the TGI turned out to be 56 µM.

`COc1cc(C(C)=O)cc(C(=O)N(C(C)C)C(C)C)c1[Si](C)(C)C` registered a TGI of over 100 µM.

On to `CCCCSC1=N/C(=C\c2ccco2)C(Cl)=N1`, for which the TGI was over 100 µM.

`CN1CCc2c(sc3ncn(C)c(=N)c23)C1` gave a TGI of over 100 µM.

Consider `c1ccc(NN=C(c2ccccn2)c2ccccn2)nc1`, for which the TGI was over 100 µM.

`O=C(N[C@@H](c1ccccc1)[C@@H](O)C(=O)OCc1ccc([N+](=O)[O-])cc1)c1ccccc1` yielded a TGI of over 100 µM.

`Cc1ccccc1N/C(=C(/C(Cl)=C(Cl)Cl)[N+](=O)[O-])n1nnc2ccccc21` yielded a TGI of 58.1 µM.

Compound `COc1ccc(-c2csc(Cc3nc4ccccc4c(=O)n3-c3ccc(Cl)cc3)n2)cc1` showed a TGI of over 100 µM.

`COc1ccc2[nH]c3c(c2c1)CC(=S)N1CCCC(CC3=O)C1` (centres undefined) gave a TGI of over 100 µM.

`CC1(C)CC(=O)C(C=NC(=O)c2ccncc2)=C(O)C1` showed a TGI of over 100 µM.

`CCOC(=O)CO/N=C1/C(c2c(O)[nH]c3ccccc23)=Nc2ccccc21` came in with a TGI of 43.3 µM.

Another experiment has as its system UACC-257 melanoma. As to the kind of experiment: NCI anticancer screen, dose series, 48 h.
Compound `CCCCCCCCCCCCC/C=C/[C@@H](O)[C@H](COC1OC(CO)C(OC2OC(CO)C(O)C(OC3(C(=O)O)CC(O)C(NC(C)=O)C(C(O)C(O)CO)O3)C2O)C(O)C1O)N=[N+]=[N-]` (some centres undefined) came in with a TGI of over 100 µM.

`COc1ccc2c(c1)C(=O)OCCC2`: the TGI was over 100 µM.

In turn, `COc1ccc(-n2cnn3c(=O)c4cn[nH]c4nc23)cc1` yielded a TGI of over 10 µM.

On to `CCOC(=O)C1(C/C=C/CBr)CCc2ccccc2C1=O` (centres undefined), for which the TGI was determined as 34.8 µM.

Compound `COc1cc(C(C)=O)cc(C(=O)N(C(C)C)C(C)C)c1[Si](C)(C)C` displayed a TGI of over 100 µM.

Compound `CCCCSC1=N/C(=C\c2ccco2)C(Cl)=N1` had a TGI of over 100 µM.

Compound `CN1CCc2c(sc3ncn(C)c(=N)c23)C1` displayed a TGI of over 100 µM.

For `c1ccc(NN=C(c2ccccn2)c2ccccn2)nc1`, the TGI is over 100 µM.

In turn, `N#Cc1[nH]c(=S)[nH]c1N` had a TGI of over 100 µM.
